The source of these data is the supplement of paper PMC6045584.

Compound in test [1]: C[C@@H]1CN(CC(=O)Nc2ccc3c(c2)Cc2cccc(-c4cc(=O)cc(N5CCOCC5)o4)c2S3)C[C@H](C)O1
In words: surviving fraction relative to DMSO-only wells; higher = less growth inhibition. As to conditions: exposure time: 5 days. In short, it runs like this:
(§1)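 Surviving fraction was calculated by normalising CellTiter-Glo luminescence to the median of DMSO-only wells. Tumour cell lines in log phase were seeded in 384-well plates at 250–500 cells per well, and 24 hours later were exposed continuously for five days to inhibitors at 0.5, 1, 5, 10, 50, 100, 500 and 1000 nM.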

Compound in a further test: Cc1c(N)nc([C@H](CC(N)=O)NC[C@H](N)C(N)=O)nc1C(=O)N[C@H](C(=O)N[C@H](C)[C@@H](O)[C@H](C)C(=O)N[C@H](C(=O)NCCc1nc(-c2nc(C(=O)NCCC[S+](C)C)cs2)cs1)[C@@H](C)O)[C@@H](OC1OC(CO)C(O)C(O)C1OC1OC(CO)C(O)C(OC(N)=O)C1O)c1cnc[nH]1 [BLEOMYCIN]
The test is described as above. As to conditions: exposure time: 5 days. In short, it runs like this: as §1

± gives the standard deviation of the averaged measurements.

Regarding HCC202 BREAST, the surviving fraction in test [1] (0.5 nM) came out at 1.01 ± 0.17; in test [1] (1 nM), 0.911 ± 0.089; in test [1] (5 nM), 0.845 ± 0.24; in test [1] (10 nM) it was 1.11 ± 0.26; in test [1] (50 nM), 0.84 ± 0.11; in test [1] (100 nM), 0.946 ± 0.25. Also, the surviving fraction stood at 0.845 ± 0.18 in test [1] (500 nM); 0.838 ± 0.28 in test [1] (1000 nM); 1.13 ± 0.17 with BLEOMYCIN (0.5 nM); 1.18 ± 0.095 in the test with BLEOMYCIN (1 nM); 1.09 ± 0.49 with BLEOMYCIN (5 nM); 1.02 ± 0.14 with BLEOMYCIN (10 nM). Besides, the surviving fraction with BLEOMYCIN (50 nM) is 1.1 ± 0.11; with BLEOMYCIN (100 nM) it was 0.992 ± 0.17; with BLEOMYCIN (500 nM), 0.862 ± 0.25; in the test with BLEOMYCIN (1000 nM), 0.738 ± 0.1.
As to SCC003 HEADNECK, the surviving fraction was determined as 1.06 ± 0.054 in test [1] (0.5 nM); 1.03 ± 0.013 in test [1] (1 nM); 1.12 ± 0.077 in test [1] (5 nM); 1.08 ± 0.045 in test [1] (10 nM); 0.984 ± 0.033 in test [1] (50 nM); 0.967 ± 0.096 in test [1] (100 nM). For the same test system, the surviving fraction turned out to be 1.04 ± 0.1 in test [1] (500 nM); 0.908 ± 0.091 in test [1] (1000 nM); 0.782 ± 0.088 in the test with BLEOMYCIN (0.5 nM); 0.787 ± 0.087 with BLEOMYCIN (1 nM); 0.792 ± 0.076 with BLEOMYCIN (5 nM); 0.822 ± 0.12 with BLEOMYCIN (10 nM). Besides, the surviving fraction with BLEOMYCIN (50 nM) was 0.975 ± 0.012; in the test with BLEOMYCIN (100 nM), 0.934 ± 0.039; in the test with BLEOMYCIN (500 nM), 0.56 ± 0.05; with BLEOMYCIN (1000 nM), 0.457 ± 0.016.
Take KPD BONE: the surviving fraction in test [1] (0.5 nM) is 0.979 ± 0.039; in test [1] (1 nM), 0.946 ± 0.05; in test [1] (5 nM) it was 1.02 ± 0.047; in test [1] (10 nM), 1.01 ± 0.068; in test [1] (50 nM) it was 1 ± 0.092; in test [1] (100 nM), 1.01 ± 0.049. Moreover, the surviving fraction in test [1] (500 nM) turned out to be 0.865 ± 0.02; in test [1] (1000 nM), 0.7 ± 0.034; with BLEOMYCIN (0.5 nM), 0.862 ± 0.01; with BLEOMYCIN (1 nM), 0.828 ± 0.062; with BLEOMYCIN (5 nM), 0.875 ± 0.021; with BLEOMYCIN (10 nM), 0.891 ± 0.034. The surviving fraction was determined as 0.767 ± 0.018 with BLEOMYCIN (50 nM), 0.699 ± 0.018 with BLEOMYCIN (100 nM), 0.495 ± 0.04 in the test with BLEOMYCIN (500 nM) and 0.407 ± 0.014 with BLEOMYCIN (1000 nM).
For the test system HELA CERVIX, the surviving fraction in test [1] (0.5 nM) came to 1.1 ± 0.048; in test [1] (1 nM), 1.06 ± 0.049; in test [1] (5 nM), 1.115 ± 0.011; in test [1] (10 nM) it was 1.06 ± 0.039; in test [1] (50 nM) it was 1.13 ± 0.03; in test [1] (100 nM), 1.11 ± 0.021. Further, the surviving fraction is 1.21 ± 0.029 in test [1] (500 nM); 1.22 ± 0.072 in test [1] (1000 nM); 0.972 ± 0.026 in the test with BLEOMYCIN (0.5 nM); 0.932 ± 0.02 with BLEOMYCIN (1 nM); 0.958 ± 0.024 in the test with BLEOMYCIN (5 nM); 0.963 ± 0.027 with BLEOMYCIN (10 nM). The surviving fraction with BLEOMYCIN (50 nM) turned out to be 1.035 ± 0.0087; in the test with BLEOMYCIN (100 nM), 1.07 ± 0.061; in the test with BLEOMYCIN (500 nM), 0.803 ± 0.032; in the test with BLEOMYCIN (1000 nM), 0.6 ± 0.062.
For C33A CERVIX, the surviving fraction was 0.963 ± 0.082 in test [1] (0.5 nM); 1.01 ± 0.1 in test [1] (1 nM); 1.06 ± 0.051 in test [1] (5 nM); 1.1 ± 0.074 in test [1] (10 nM); 1.06 ± 0.067 in test [1] (50 nM); 1.14 ± 0.14 in test [1] (100 nM). For the same test system, the surviving fraction was 0.973 ± 0.059 in test [1] (500 nM); 0.827 ± 0.1 in test [1] (1000 nM); 0.925 ± 0.11 with BLEOMYCIN (0.5 nM); 0.98 ± 0.039 in the test with BLEOMYCIN (1 nM); 0.984 ± 0.13 in the test with BLEOMYCIN (5 nM); 0.827 ± 0.062 with BLEOMYCIN (10 nM). The surviving fraction with BLEOMYCIN (50 nM) stood at 0.435 ± 0.014; in the test with BLEOMYCIN (100 nM) it was 0.334 ± 0.02; with BLEOMYCIN (500 nM), 0.163 ± 0.015; with BLEOMYCIN (1000 nM), 0.124 ± 0.01.
HU09 BONE: the surviving fraction in test [1] (0.5 nM) came to 0.994 ± 0.096; in test [1] (1 nM) it was 0.996 ± 0.1; in test [1] (5 nM), 1.13 ± 0.061; in test [1] (10 nM), 1.1 ± 0.14; in test [1] (50 nM) it was 1.03 ± 0.12; in test [1] (100 nM), 1.42 ± 0.58. The surviving fraction stood at 0.778 ± 0.065 in test [1] (500 nM); 0.763 ± 0.14 in test [1] (1000 nM); 0.805 ± 0.015 with BLEOMYCIN (0.5 nM); 0.923 ± 0.031 with BLEOMYCIN (1 nM); 0.9 ± 0.084 with BLEOMYCIN (5 nM); 0.831 ± 0.058 with BLEOMYCIN (10 nM). The surviving fraction with BLEOMYCIN (50 nM) came to 0.883 ± 0.083; in the test with BLEOMYCIN (100 nM) it was 0.761 ± 0.037; with BLEOMYCIN (500 nM), 0.381 ± 0.013; in the test with BLEOMYCIN (1000 nM), 0.246 ± 0.028.
As to SCC47 HEADNECK, the surviving fraction in test [1] (0.5 nM) came out at 1.06 ± 0.1; in test [1] (1 nM) it was 1.04 ± 0.036; in test [1] (5 nM), 1.1 ± 0.057; in test [1] (10 nM) it was 1.06 ± 0.075; in test [1] (50 nM) it was 1.04 ± 0.042; in test [1] (100 nM), 1.09 ± 0.04. Besides, the surviving fraction in test [1] (500 nM) came out at 1.05 ± 0.064; in test [1] (1000 nM), 1.12 ± 0.093; with BLEOMYCIN (0.5 nM), 0.907 ± 0.031; in the test with BLEOMYCIN (1 nM), 0.909 ± 0.046; in the test with BLEOMYCIN (5 nM), 0.917 ± 0.038; in the test with BLEOMYCIN (10 nM), 0.9 ± 0.019. For the same test system, the surviving fraction in the test with BLEOMYCIN (50 nM) came to 0.843 ± 0.026; with BLEOMYCIN (100 nM), 0.677 ± 0.047; in the test with BLEOMYCIN (500 nM) it was 0.466 ± 0.057; with BLEOMYCIN (1000 nM) it was 0.436 ± 0.035.
Regarding SUM149.B1*.S BREAST, the surviving fraction turned out to be 1.07 ± 0.062 in test [1] (0.5 nM); 1.06 ± 0.064 in test [1] (1 nM); 1.05 ± 0.025 in test [1] (5 nM); 1.03 ± 0.027 in test [1] (10 nM); 1.07 ± 0.071 in test [1] (50 nM); 1.05 ± 0.016 in test [1] (100 nM). The surviving fraction turned out to be 1.08 ± 0.045 in test [1] (500 nM); 1.07 ± 0.074 in test [1] (1000 nM); 0.884 ± 0.032 in the test with BLEOMYCIN (0.5 nM); 0.943 ± 0.024 with BLEOMYCIN (1 nM); 0.928 ± 0.028 with BLEOMYCIN (5 nM); 0.883 ± 0.042 in the test with BLEOMYCIN (10 nM). Besides, the surviving fraction in the test with BLEOMYCIN (50 nM) is 0.937 ± 0.066; with BLEOMYCIN (100 nM) it was 0.939 ± 0.059; in the test with BLEOMYCIN (500 nM), 0.55 ± 0.061; with BLEOMYCIN (1000 nM), 0.394 ± 0.096.
On to LM7 BONE, for which the surviving fraction is 0.909 ± 0.046 in test [1] (0.5 nM); 0.946 ± 0.031 in test [1] (1 nM); 0.94 ± 0.048 in test [1] (5 nM); 1.09 ± 0.064 in test [1] (10 nM); 0.947 ± 0.052 in test [1] (50 nM); 0.896 ± 0.033 in test [1] (100 nM). For the same test system, the surviving fraction is 0.798 ± 0.063 in test [1] (500 nM); 0.78 ± 0.097 in test [1] (1000 nM); 0.745 ± 0.055 with BLEOMYCIN (0.5 nM); 0.756 ± 0.039 with BLEOMYCIN (1 nM); 0.834 ± 0.029 in the test with BLEOMYCIN (5 nM); 0.823 ± 0.091 with BLEOMYCIN (10 nM). Moreover, the surviving fraction in the test with BLEOMYCIN (50 nM) was 0.91 ± 0.048; with BLEOMYCIN (100 nM), 0.767 ± 0.05; with BLEOMYCIN (500 nM) it was 0.402 ± 0.022; with BLEOMYCIN (1000 nM), 0.289 ± 0.044.
